US7495027B2, “3-aryl-4-hydroxyfuranone compounds and the human and animal health use thereof” (Wyeth, priority 2003, dated 2009)
In brackets after ≈: the same amount, converted by molar mass. Where two headings read alike, the source gives them in different places.

What was measured:
[1] = molecular target: E. coli Uridine-diphosphate-N-acetvimuramoyl: L-alanine lipase, MurC (Escherichia coli, UniProt P17952); assay: Inhibitory activity against MurC (E. coli); assay type: biochemical; conditions: (E) E. coli enzyme; for IC50: read-out: MurC IC50 (converted)
E. coli Uridine-diphosphate-N-acetvimuramoyl: L-alanine lipase, MurC, sequence (P17952 whole entry): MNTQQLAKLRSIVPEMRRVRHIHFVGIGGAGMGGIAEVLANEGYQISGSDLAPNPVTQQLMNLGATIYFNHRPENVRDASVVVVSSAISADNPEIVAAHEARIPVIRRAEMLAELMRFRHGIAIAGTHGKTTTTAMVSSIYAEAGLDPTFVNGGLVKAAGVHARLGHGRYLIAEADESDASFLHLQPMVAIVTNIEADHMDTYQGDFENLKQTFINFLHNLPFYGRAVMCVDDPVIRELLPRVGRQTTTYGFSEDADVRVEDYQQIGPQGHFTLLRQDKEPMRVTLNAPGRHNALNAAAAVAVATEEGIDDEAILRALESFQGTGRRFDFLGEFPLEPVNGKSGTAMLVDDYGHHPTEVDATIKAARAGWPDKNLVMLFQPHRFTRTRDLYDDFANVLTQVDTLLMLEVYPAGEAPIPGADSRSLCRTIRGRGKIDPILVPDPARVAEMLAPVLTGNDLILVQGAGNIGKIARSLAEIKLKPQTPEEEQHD

[2] = molecular target: T1, S. aureus Uridine-diphosphate-N-acetylmuramoyl-L-alanine: D-glutamate liease, MurD (Staphylococcus aureus, UniProt Q2FZ92); assay: biochemical; conditions: (S) S. aureus enzyme
T1 sequence (Q2FZ92 1-449): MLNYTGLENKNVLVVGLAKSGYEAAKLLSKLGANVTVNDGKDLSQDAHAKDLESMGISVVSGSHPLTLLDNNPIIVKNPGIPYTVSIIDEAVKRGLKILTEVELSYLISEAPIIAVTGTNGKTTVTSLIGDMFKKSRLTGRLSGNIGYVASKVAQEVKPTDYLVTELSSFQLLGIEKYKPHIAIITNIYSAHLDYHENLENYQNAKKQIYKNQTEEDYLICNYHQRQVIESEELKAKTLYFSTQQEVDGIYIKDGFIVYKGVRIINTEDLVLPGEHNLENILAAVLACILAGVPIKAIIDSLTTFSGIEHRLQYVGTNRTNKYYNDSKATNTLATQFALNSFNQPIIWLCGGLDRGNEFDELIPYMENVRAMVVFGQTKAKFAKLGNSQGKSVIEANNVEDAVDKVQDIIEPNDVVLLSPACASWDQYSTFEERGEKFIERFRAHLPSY
Description: S. aureus and E. coli Uridine-diphosphate-N-acetylmuramoyl-L-alanine: D-glutamate liease, MurD
(§1) Preparation of Enzyme Solution:
(§2) Preparation of Test Compound Solutions:
(§3) All test solutions are prepared in DMSO as 10 mg/mL, then diluted with 50 mM Tris/HCl (pH 8.5) to 100 μg/mL.
(§4) Preparation of Stop Solution:
In this evaluation, the inhibitory activity of a test compound against MurD, the enzyme which catalyzes the fourth step of bacterial cell wall biosynthesis is determined.

[3] = molecular target: T2, S. aureus Uridine-diphosphate-N-acetvimuramoyl: L-alanine lipase, MurC (Staphylococcus aureus, UniProt Q2FXJ0); assay: biochemical; conditions: (S) S. aureus enzyme; read-out: MurC IC50 (converted)
T2 sequence (Q2FXJ0 1-437): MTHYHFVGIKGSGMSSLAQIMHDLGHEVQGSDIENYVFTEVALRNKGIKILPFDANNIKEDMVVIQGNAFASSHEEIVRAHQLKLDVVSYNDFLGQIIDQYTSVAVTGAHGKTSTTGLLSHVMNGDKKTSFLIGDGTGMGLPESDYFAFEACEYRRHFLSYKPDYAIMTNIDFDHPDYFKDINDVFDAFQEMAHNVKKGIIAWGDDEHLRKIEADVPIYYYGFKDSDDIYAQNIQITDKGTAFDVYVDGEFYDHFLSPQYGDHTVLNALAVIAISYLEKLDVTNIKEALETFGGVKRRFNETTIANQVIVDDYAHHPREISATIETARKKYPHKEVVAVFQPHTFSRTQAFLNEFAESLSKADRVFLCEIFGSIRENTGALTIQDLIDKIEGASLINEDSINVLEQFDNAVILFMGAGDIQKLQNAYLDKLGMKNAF
Description: S. aureus and E. coli Uridine-diphosphate-N-acetvimuramoyl: L-alanine lipase, MurC
as §1
A 1 mg/mL stock solution of MurC is prepared in a buffer consisting of 20 mM Tris/HCl (pH 8.5) with 2.5 μM BME. The stock solution is further diluted with the buffer to give a final enzyme concentration of 100 μg/mL for the E. coli stock solution and 70 μg/mL for the S. aureus stock solution.
as §2, §3, §4
The stop solution is prepared by stirring 1 part 4.2% ammonium molydbate in 4N HCl with 2 parts 0.045% malachite green for 30 min.
In this evaluation, the inhibitory activity of a test compound against MurC, the enzyme which catalyzes the third step of bacterial cell wall bioxynthesis is determined. Experiments are performed by adding 2.5 μl buffer, 2.5 μl 0.5M NH4SO2, 5 μl 2 μM L-Ala, 5 μl enzyme solution and 6.5 μl test compound solution to each well in a 96-well microplate. After a pre-incubation period of 10 mins. at 23° C., 3.75 μl of a 0.75 μM solution of UDP-MurNac is added to each well. Following an incubation period of 10 mins. at 37° C., 210 μl stop solution and 50 μl of a 34% w/v sodium citrate solution are added and color is allowed to develop for 10 mins. at 23° C. (Lanzetta et al., Analytical Biochemistry, 1979, 95) Optical density readings are taken at 660 nm using a Molecular Devices Spectra Max 250 with Soft Max software. Controls are performed using the same procedure and omitting the addition of UDP-MurNac. […]
Using these values the IC50 is determined by linear regression analysis.

staphylococci = assay: Minimum inhibitory concentration, microdilution broth method, staphylococci; assay type: cell-based; conditions: Staphylococcus aureus, Mueller-Hinton broth, 18-22 hours at 35° C.
Summary of the method: (§5)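 Following NCCLS standard M7-A5, MICs were determined by microdilution in Mueller-Hinton broth, with 5% horse blood added for streptococci.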

enterococci = assay: Minimum inhibitory concentration, microdilution broth method, enterococci; assay type: cell-based; conditions: Enterococcus faecalis, Mueller-Hinton broth, 18-22 hours at 35° C.
Summary of the method: as §5

Streptococci = assay: Minimum inhibitory concentration, microdilution broth method, streptococci; assay type: cell-based; conditions: S. pneumo GC 1894; Mueller-Hinton broth with 5% horse blood, 18-22 hours at 35° C.
Summary of the method: as §5

[4] = molecular target: E. coli Enopyruvyl-UPD-N-acetylglucosamine reductase, Mur B (Escherichia coli, UniProt P08373); assay: biochemical; conditions: (E) E. coli enzyme; for IC50: read-out: MurB IC50 (converted)
E. coli Enopyruvyl-UPD-N-acetylglucosamine reductase, Mur B, sequence (P08373 whole entry): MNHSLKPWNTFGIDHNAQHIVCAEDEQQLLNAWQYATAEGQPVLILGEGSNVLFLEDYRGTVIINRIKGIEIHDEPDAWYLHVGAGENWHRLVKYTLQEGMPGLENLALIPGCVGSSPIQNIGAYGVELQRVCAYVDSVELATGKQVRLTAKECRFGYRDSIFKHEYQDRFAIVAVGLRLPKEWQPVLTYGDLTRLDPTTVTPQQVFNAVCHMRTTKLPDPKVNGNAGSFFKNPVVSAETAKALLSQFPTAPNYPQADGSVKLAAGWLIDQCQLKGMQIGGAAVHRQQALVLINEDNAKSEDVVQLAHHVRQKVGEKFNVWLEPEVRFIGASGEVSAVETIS

[5] = molecular target: T3, S. aureus Enopyruvyl-UPD-N-acetylglucosamine reductase, Mur B (Staphylococcus aureus, UniProt P61431); assay: biochemical; conditions: (S) S. aureus enzyme; read-out: MurB IC50 (converted)
T3 sequence (P61431 1-307): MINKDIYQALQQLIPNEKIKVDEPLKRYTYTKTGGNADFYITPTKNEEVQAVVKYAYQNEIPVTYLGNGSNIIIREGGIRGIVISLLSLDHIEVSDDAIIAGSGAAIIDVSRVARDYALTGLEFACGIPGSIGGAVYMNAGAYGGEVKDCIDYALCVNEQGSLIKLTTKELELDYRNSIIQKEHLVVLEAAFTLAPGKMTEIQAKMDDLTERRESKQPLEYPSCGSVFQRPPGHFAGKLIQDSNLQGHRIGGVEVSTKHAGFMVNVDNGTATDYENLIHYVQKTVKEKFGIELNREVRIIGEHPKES

[6] = molecular target: E. coli Uridine-diphosphate-N-acetylmuramoyl-L-alanine: D-glutamate liease, MurD (Escherichia coli, UniProt P14900); assay: biochemical; conditions: (E) E. coli enzyme
E. coli Uridine-diphosphate-N-acetylmuramoyl-L-alanine: D-glutamate liease, MurD, sequence (P14900 whole entry): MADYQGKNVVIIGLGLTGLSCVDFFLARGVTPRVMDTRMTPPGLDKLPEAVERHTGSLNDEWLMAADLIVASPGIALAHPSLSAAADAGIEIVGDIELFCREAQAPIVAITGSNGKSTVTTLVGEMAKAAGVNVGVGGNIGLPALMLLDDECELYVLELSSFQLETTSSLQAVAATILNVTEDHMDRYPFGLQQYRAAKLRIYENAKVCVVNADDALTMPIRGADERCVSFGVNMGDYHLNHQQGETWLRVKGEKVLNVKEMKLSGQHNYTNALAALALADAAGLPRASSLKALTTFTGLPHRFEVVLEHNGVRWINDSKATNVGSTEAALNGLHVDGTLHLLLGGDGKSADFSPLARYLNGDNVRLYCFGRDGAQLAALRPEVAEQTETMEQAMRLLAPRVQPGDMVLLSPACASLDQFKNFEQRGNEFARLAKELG
Summary of the method: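 Compound working solutions reach 100 μg/mL in 50 mM Tris/HCl (pH 8.5) after dilution of 10 mg/mL DMSO stocks; final level in the well not given here. Reaction buffer finals: 2 mM ATP, 50 mM MgCl2, 83 mM Tris/HCl, pH 8.0.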

[7] = molecular target: E. coli UDP-N-acetylglucosamine enolpyruvoyl transferase, MurA (Escherichia coli, UniProt P0A749); assay: biochemical; conditions: (E) E. coli enzyme
E. coli UDP-N-acetylglucosamine enolpyruvoyl transferase, MurA, sequence (P0A749 whole entry): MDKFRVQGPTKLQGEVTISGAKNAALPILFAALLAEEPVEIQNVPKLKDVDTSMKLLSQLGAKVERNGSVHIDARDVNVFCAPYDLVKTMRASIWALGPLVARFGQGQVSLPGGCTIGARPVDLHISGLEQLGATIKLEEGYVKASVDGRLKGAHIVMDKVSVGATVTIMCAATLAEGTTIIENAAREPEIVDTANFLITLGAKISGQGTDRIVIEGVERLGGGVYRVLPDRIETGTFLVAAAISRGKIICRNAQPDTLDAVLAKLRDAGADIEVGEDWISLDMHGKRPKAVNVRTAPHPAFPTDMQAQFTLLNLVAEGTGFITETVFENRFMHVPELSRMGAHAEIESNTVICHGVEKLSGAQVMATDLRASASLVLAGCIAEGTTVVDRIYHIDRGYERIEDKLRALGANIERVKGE
Summary of the method: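 Enzyme in 50 mM Tris/HCl pH 8.0 with 5 mM DTT and 20% glycerol was pre-incubated 10 min at 37° C with test compound in DMSO/water. Tris/BME and assay buffer then started the 1 hr, 37° C reaction, with a baseline 340 nm reading taken at start. Stop solution followed, and colour developed 30 minutes.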

[8] = molecular target: T4, S. aureus UDP-N-acetylglucosamine enolpyruvoyl transferase, MurA (Staphylococcus aureus, UniProt P84058); assay: Inhibitory activity against MurA (S. aureus); assay type: biochemical; conditions: (S) S. aureus enzyme
T4 sequence (P84058 1-421): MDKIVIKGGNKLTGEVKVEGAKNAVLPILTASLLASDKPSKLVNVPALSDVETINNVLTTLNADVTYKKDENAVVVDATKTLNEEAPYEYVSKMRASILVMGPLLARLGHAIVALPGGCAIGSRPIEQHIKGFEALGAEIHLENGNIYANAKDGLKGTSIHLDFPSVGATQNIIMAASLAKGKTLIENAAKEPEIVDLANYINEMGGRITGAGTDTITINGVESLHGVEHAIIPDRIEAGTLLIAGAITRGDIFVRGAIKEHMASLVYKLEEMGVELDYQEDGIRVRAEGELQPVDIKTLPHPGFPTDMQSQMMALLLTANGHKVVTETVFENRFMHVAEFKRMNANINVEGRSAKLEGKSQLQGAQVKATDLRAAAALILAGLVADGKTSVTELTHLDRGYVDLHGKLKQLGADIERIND
Description: Evaluation of the Inhibitory Activity of Test Compounds Against Enzymes which Catalyze Bacterial Cell Wall Biosynthesis
S. aureus and E. coli UDP-N-acetylglucosamine enolpyruvoyl transferase, MurA
as §1
The enzyme solution is prepared by admixing the following: 50 mM Tris/HCl pH 8.0, […] 1 M Tris, 5 mM DTT, […] 1 M DTT, 20% Glycerol 4 ml 50% Glycerol, add water to 10 ml.
as §4
The stop solution is prepared by mixing the following: 4.2% ammonium molybdate in 4N HCl, 8.4 g/200 ml 4N HCl, 0.045% malachite green, 90 mg/200 ml water, then stir 1 part ammonium molybdate with 2 parts malachite green for 30 min.
A procedure similar to that described by C. T. Walsh in Biochemistry 33, 10646-10651, is used to evaluate the inhibitory activity of test compounds against MurA, the enzyme which catalyzes the first step of bacterial cell wall biosynthesis. Experiments are performed by adding a solution of test compound (in a mixture of dimethylsulfoxide and water) and an enzyme solution to a well. After a pre-incubation period of 10 mintues at 37° C., Tris/BME buffer and assay buffer are added. A start point optical density (OD0) reading is taken at 340 nm immediately following the addition of assay buffer. After incubation for 1 hr at 37° C., the stop solution is added and the color is allowed to develop for 30 minutes. An end point OD1 reading at […] is then taken. […]

[9] = S. aureus GC 1131, read-out: MIC S. aureus GC 1131
[10] = S. aureus GC 4543, read-out: MIC S. aureus GC 4543
[11] = E. faecalis GC 2242, read-out: MIC E. faecalis GC 2242
[12] = E. faecalis GC 4555, read-out: MIC E. faecalis GC 4555

IC50 [8] [µM]	Compound	MurC IC50 [1]	IC50 [2] [µM]	IC50 [3] [µM]	MIC (staphylococci; [9]) [mg/L]	MIC (staphylococci; [10]) [mg/L]	MIC (enterococci; [11]) [mg/L]	MIC (enterococci; [12]) [mg/L]	MIC (Streptococci) [mg/L]	MurB IC50 [4] [mg/L]	IC50 [5] [µM]	IC50 [1] [µM]	IC50 [6] [µM]	IC50 [7] [µM]	IC50 [4] [µM]	melting point
–	O=C1O/C(=C\c2cccc3ccccc23)C(O)=C1c1ccc(Cl)cc1 [Example 4, 3-(4-Chlorophenyl)-4-hydroxy-5-[(Z)-1-naphthylmethylidene]-furan-2-(5H)-one]	7 µg/mL	68.8	45.9	16 (≈ 45.9 µM)	16 (≈ 45.9 µM)	8 (≈ 22.9 µM)	32 (≈ 91.7 µM)	1 (≈ 2.87 µM)	–	–	–	–	–	–	–
–	O=C1O/C(=C\c2cccc3ccccc23)C(O)=C1c1cccc(C(F)(F)F)c1 [Example 5]	6 (E) μg/mL	–	–	8 (≈ 20.9 µM)	8 (≈ 20.9 µM)	8 (≈ 20.9 µM)	16 (≈ 41.8 µM)	0.5 (≈ 1.31 µM)	8	15.7	–	–	–	–	–
–	COc1ccc(C2=C(O)/C(=C/c3cccc4ccccc34)OC2=O)cc1 [Example 6]	–	–	–	32 (≈ 92.9 µM)	64 (≈ 186 µM)	32 (≈ 92.9 µM)	> 128	8 (≈ 23.2 µM)	–	61	46.5	> 72.6	> 72.6	> 72.6	–
–	COc1ccc(C2=C(O)/C(=C/c3ccc4ccccc4c3)OC2=O)cc1 [Example 7]	–	–	–	32 (≈ 92.9 µM)	64 (≈ 186 µM)	32 (≈ 92.9 µM)	64 (≈ 186 µM)	2 (≈ 5.81 µM)	–	–	37.8	> 72.6	> 72.6	61	257 to 258.5 °C
–	COc1ccc(C2=C(O)/C(=C/c3ccc(-c4ccccc4)cc3)OC2=O)cc1 [Example 9]	–	–	–	32 (≈ 86.4 µM)	> 128	8 (≈ 21.6 µM)	64 (≈ 173 µM)	< 0.125	–	–	> 67.5	> 67.5	> 67.5	43.2	266 to 269 °C
–	Cc1ccc(/C=C2\OC(=O)C(c3cccc(C(F)(F)F)c3)=C2O)s1 [Example 12]	–	–	–	64 (≈ 182 µM)	64 (≈ 182 µM)	64 (≈ 182 µM)	> 128	2 (≈ 5.68 µM)	–	–	42.6	> 71	> 71	> 71	249 to 251 °C
30.1	CC(=O)c1ccccc1-c1ccc(/C=C2\OC(=O)C(c3cc(Cl)cc(Cl)c3)=C2O)cc1C [Example 40]	–	15	8.6	1 (≈ 2.15 µM)	1 (≈ 2.15 µM)	2 (≈ 4.3 µM)	2 (≈ 4.3 µM)	< 0.125	–	–	–	–	–	–	–
–	Cc1ccc(/C=C2\OC(=O)C(c3ccc4ccccc4c3)=C2O)s1 [Example 41]	–	–	–	32 (≈ 95.7 µM)	64 (≈ 191 µM)	32 (≈ 95.7 µM)	64 (≈ 191 µM)	32 (≈ 95.7 µM)	–	–	38.9	> 74.8	> 74.8	> 74.8	144 to 145 °C (dec.)
–	O=C1O/C(=C\c2cccc(-c3ccc(Cl)c(Cl)c3)c2)C(O)=C1c1ccc(Cl)c(Cl)c1 [Example 135]	–	12.5	–	32 (≈ 66.9 µM)	1 (≈ 2.09 µM)	4 (≈ 8.37 µM)	4 (≈ 8.37 µM)	1 (≈ 2.09 µM)	–	6.27	12.5	–	4.18	6.27	–
